# According to patent US7589062B2, “Two synthetic peptides for treatment and prevention of cancers” (priority 2002, dated 2009):
# Where no end group is shown, it is not given here.
# How the values were obtained:
# SP/2 cells = test: Cytolytic activity of trypsin digested fragments of AT and KT on SP/2 cells; type: cell-based, mouse; conditions: 10^5 SP/2 cells, 20-1.0 μg/ml, read after three days
# Procedure: Biological Activity of Fragments on SP/2 cells: The cytolytic activity of the trypsin digested fragments of AT and KT were tested on 10^5 SP/2 cells. Dulbecco Modified Eagle's Medium (DMEM) containing 10% newborn calf serum (NBCS), L-glutamine and antibiotics penicillin and streptomycin was used to grow SP/2 cells. Initially, each fraction was tested on cells grown in 48 well plate at 37° C. in a humid CO2 incubator. The serum free medium containing different concentrations such as 20, 10, 5, 2.5 and 1.0 μg/ml of each fragment was tested. Control cells received PBS to serve as controls.
# The tests were read after three days. […] Those fragments were considered as the active domains for cancer cell inhibitor. […] The fragment 6 for AT and the fragment 10 for KT were considered as the active domains for cytolytic activity.
# BT-20 - cancer of breast = test: Cytolytic effect on cancer cells in culture, read microscopically; type: cell-based, human
# Procedure: (§1) Biological cytolytic activity of AT and KT at various concentrations ranging from […], 6.25, 12.5 and 25 μg/ml were tested on human cancer cells and SP/2 mouse myeloma cells. The combination AT+KT was 50% by weight of each.
# [1] = tested on: HBL-100 - cancer of breast; test: as above; type: cell-based, human
# Procedure: as §1
# HT-29 - cancer of colon = test: as above; type: cell-based, human
# Procedure: as §1
# [2] = tested on: Sk-ov-3 - cancer of ovary; test: as above; type: cell-based, human
# Procedure: as §1
# CCL-13 - cancer of mouth = test: as above; type: cell-based, human
# SP/2 - mouse myeloma = test: as above; type: cell-based
# SP/2 cancer cells = test: Anti cancer activity in vivo: survival of mice injected i.p. with SP/2 cancer cells (ascitic tumors); conditions: Balb/c mice, 2 million SP/2 cells i.p.; 100 μg/mouse for seven consecutive days; PBS control 23 days
# Procedure: Anti Cancer Activity of Synthetic AT and KT In Vivo: Adult Balb/c mice were injected intra-peritoneally with 0.5 ml containing 2 million SP/2 cancer cells. Mice were divided into four groups. Starting from day one of post injection the mice were treated with AT and KT individually and the combination of both at 200 μg/ml concentration. Doses of 0.5 ml containing 100 μg/mouse were given for seven consecutive days and the control mice received 0.5 ml PBS.
# [3] = comparison of syn KT with syn AT
sequence,measurement,setting,value
FCRFLLCPSRSLL (cysteine pairing not given here) [fragment 6 for AT],"Cytolytic activity of trypsin digested fragments, ranking among fragments",SP/2 cells,most active
FCRFLLCPSR (cysteine pairing not given here) [Atroporin],% Cytolyic cells BT-20,BT-20 - cancer of breast; 3.12 μg/ml,0%
same,% Cytolyic cells BT-20,BT-20 - cancer of breast; 6.25 μg/ml,0%
same,% Cytolyic cells BT-20,BT-20 - cancer of breast; 12.5 μg/ml,50%
same,% Cytolyic cells BT-20,BT-20 - cancer of breast; 25 μg/ml,100%
same,% Cytolyic cells HBL-100,[1]; 3.12 μg/ml,0%
same,% Cytolyic cells HBL-100,[1]; 6.25 μg/ml,0%
same,% Cytolyic cells HBL-100,[1]; 12.5 μg/ml,50%
same,% Cytolyic cells HBL-100,[1]; 25 μg/ml,100%
same,% Cytolyic cells HT-29,HT-29 - cancer of colon; 3.12 μg/ml,0%
same,% Cytolyic cells HT-29,HT-29 - cancer of colon; 6.25 μg/ml,0%
same,% Cytolyic cells HT-29,HT-29 - cancer of colon; 12.5 μg/ml,100%
same,% Cytolyic cells HT-29,HT-29 - cancer of colon; 25 μg/ml,100%
same,% Cytolyic cells Sk-ov-3,[2]; 3.12 μg/ml,0%
same,% Cytolyic cells Sk-ov-3,[2]; 6.25 μg/ml,100%
same,% Cytolyic cells Sk-ov-3,[2]; 12.5 μg/ml,100%
same,% Cytolyic cells Sk-ov-3,[2]; 25 μg/ml,100%
same,"Cytolytic effect compared in similar concentration, Sk-ov-3",[2]; comparison of syn AT with the other peptide,more cytolytic
same,% Cytolyic cells CCL-13,CCL-13 - cancer of mouth; 3.12 μg/ml,0%
same,% Cytolyic cells CCL-13,CCL-13 - cancer of mouth; 6.25 μg/ml,50%
same,% Cytolyic cells CCL-13,CCL-13 - cancer of mouth; 12.5 μg/ml,100%
same,% Cytolyic cells CCL-13,CCL-13 - cancer of mouth; 25 μg/ml,100%
same,% Cytolyic cells SP/2,SP/2 - mouse myeloma; 3.12 μg/ml,0%
same,% Cytolyic cells SP/2,SP/2 - mouse myeloma; 6.25 μg/ml,0%
same,% Cytolyic cells SP/2,SP/2 - mouse myeloma; 12.5 μg/ml,50%
same,% Cytolyic cells SP/2,SP/2 - mouse myeloma; 25 μg/ml,100%
same,Survival (incubation period for development of ascitic tumors to cause death),SP/2 cancer cells,30 days
PPGNQPDADSN [fragment 10 for KT],"Cytolytic activity of trypsin digested fragments, ranking among fragments",SP/2 cells,most active
PPGNQPDADS [Kaotree],% Cytolyic cells BT-20,BT-20 - cancer of breast; 3.12 μg/ml,0%
same,% Cytolyic cells BT-20,BT-20 - cancer of breast; 6.25 μg/ml,0%
same,% Cytolyic cells BT-20,BT-20 - cancer of breast; 12.5 μg/ml,75%
same,% Cytolyic cells BT-20,BT-20 - cancer of breast; 25 μg/ml,100%
same,"Cytolytic effect compared in similar concentration, BT-20",BT-20 - cancer of breast; [3],more cytolytic than AT
same,% Cytolyic cells HBL-100,[1]; 3.12 μg/ml,0%
same,% Cytolyic cells HBL-100,[1]; 6.25 μg/ml,50%
same,% Cytolyic cells HBL-100,[1]; 12.5 μg/ml,100%
same,% Cytolyic cells HBL-100,[1]; 25 μg/ml,100%
same,"Cytolytic effect compared in similar concentration, HBL-100",[1]; [3],more cytolytic than AT
same,% Cytolyic cells HT-29,HT-29 - cancer of colon; 3.12 μg/ml,0%
same,% Cytolyic cells HT-29,HT-29 - cancer of colon; 6.25 μg/ml,0%
same,% Cytolyic cells HT-29,HT-29 - cancer of colon; 12.5 μg/ml,100%
same,% Cytolyic cells HT-29,HT-29 - cancer of colon; 25 μg/ml,100%
same,% Cytolyic cells Sk-ov-3,[2]; 3.12 μg/ml,0%
same,% Cytolyic cells Sk-ov-3,[2]; 6.25 μg/ml,50%
same,% Cytolyic cells Sk-ov-3,[2]; 12.5 μg/ml,100%
same,% Cytolyic cells Sk-ov-3,[2]; 25 μg/ml,100%
same,% Cytolyic cells CCL-13,CCL-13 - cancer of mouth; 3.12 μg/ml,0%
same,% Cytolyic cells CCL-13,CCL-13 - cancer of mouth; 6.25 μg/ml,0%
same,% Cytolyic cells CCL-13,CCL-13 - cancer of mouth; 12.5 μg/ml,100%
same,% Cytolyic cells CCL-13,CCL-13 - cancer of mouth; 25 μg/ml,100%
same,% Cytolyic cells SP/2,SP/2 - mouse myeloma; 3.12 μg/ml,0%
same,% Cytolyic cells SP/2,SP/2 - mouse myeloma; 6.25 μg/ml,50%
same,% Cytolyic cells SP/2,SP/2 - mouse myeloma; 12.5 μg/ml,100%
same,% Cytolyic cells SP/2,SP/2 - mouse myeloma; 25 μg/ml,100%
same,Survival (incubation period for development of ascitic tumors to cause death),SP/2 cancer cells,37 days
